Measured values taken from the supplement of paper PMC10307832.

How the values were obtained:
Test in all cases: relative viability (nuclei count vs DMSO), 5 days (fraction); higher = more cells survive
[1] = compound: O=S(=O)(c1ccccc1)N(CC(F)(F)F)c1ccc(C(O)(C(F)(F)F)C(F)(F)F)cc1
Procedure, shortened: (§1)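 Viability was read as treated-well nuclei divided by vehicle-well nuclei, using the median across plates. Lung cancer cell lines in 1536-well plates were kept overnight at 37 °C, pinned with five √10-spaced library-drug doses, and after 5 days were Hoechst-stained, imaged at 4× and counted in MetaXpress. Plates passed only with control CV below 25% and at least one doubling.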

RO-3306 = compound: C1=CC2=C(C=CC(=C2)C=C3C(=O)NC(=NCC4=CC=CS4)S3)N=C1 [RO-3306]
Procedure, shortened: as §1

Foretinib = compound: COc1cc2c(Oc3ccc(NC(=O)C4(C(=O)Nc5ccc(F)cc5)CC4)cc3F)ccnc2cc1OCCCN1CCOCC1 [Foretinib] (anchor plate); settings: 0.25 µM
Procedure, shortened: as §1

RO-3306 + Pictilisib = compound: C1=CC2=C(C=CC(=C2)C=C3C(=O)NC(=NCC4=CC=CS4)S3)N=C1 [RO-3306] + CS(=O)(=O)N1CCN(Cc2cc3nc(-c4cccc5[nH]ncc45)nc(N4CCOCC4)c3s2)CC1 [Pictilisib] (partner 1 µM)
Procedure, shortened: (§2)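 Lung cancer cell lines were seeded in 1536-well plates and dosed by pin tool the next day, with either a single drug or a fixed anchor-drug dose combined with five library-drug doses (not always all listed) spaced in √10 steps. Five days later, one step fixed the cells and stained their nuclei (final 0.05% Triton X-100, 1% formaldehyde, 1 ug/ml Hoechst), and nuclei were counted on 4× images. Relative viability is the nuclei count in treated wells divided by the count in vehicle wells, and each value is the median of duplicate plates.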

RO-3306 + Crizotinib = compound: C1=CC2=C(C=CC(=C2)C=C3C(=O)NC(=NCC4=CC=CS4)S3)N=C1 [RO-3306] + C[C@@H](Oc1cc(-c2cnn(C3CCNCC3)c2)cnc1N)c1c(Cl)ccc(F)c1Cl [Crizotinib] (partner 1 µM)
Procedure, shortened: as §2

Cell Line | relative viability ([1]; 0.8 µM) | relative viability ([1]; 2.53 µM) | relative viability ([1]; 8 µM) | relative viability (RO-3306; 0.01 µM) | relative viability (RO-3306; 0.03162 µM) | relative viability (RO-3306; 0.1 µM) | relative viability (RO-3306; 0.3162 µM) | relative viability (RO-3306; 1 µM) | relative viability (Foretinib) | relative viability (RO-3306 + Pictilisib; first compound 0.01 µM) | relative viability (RO-3306 + Pictilisib; first compound 0.03162 µM) | relative viability (RO-3306 + Pictilisib; first compound 0.1 µM) | relative viability (RO-3306 + Pictilisib; first compound 0.3162 µM) | relative viability (RO-3306 + Pictilisib; first compound 1 µM) | relative viability (RO-3306 + Crizotinib; first compound 0.01 µM) | relative viability (RO-3306 + Crizotinib; first compound 0.03162 µM) | relative viability (RO-3306 + Crizotinib; first compound 0.1 µM) | relative viability (RO-3306 + Crizotinib; first compound 0.3162 µM) | relative viability (RO-3306 + Crizotinib; first compound 1 µM)
EMC-BAC-2 | 0.996 | 1.01 | 0.966 | 0.943 | 0.844 | 0.915 | 1.12 | 0.616 | 1.02 | 0.503 | 0.511 | 0.54 | 0.531 | 0.483 | 0.768 | 0.723 | 0.767 | 0.735 | 0.702
Calu-6 | 0.982 | 0.876 | 0.858 | 1.12 | 0.893 | 1.02 | 1 | 1.06 | 0.861 | 1.1 | 0.97 | 0.934 | 0.866 | 0.91 | 0.909 | 0.774 | 0.802 | 0.804 | 0.768
NCI-H2126 | 1.1 | 1.01 | 1.02 | 1.01 | 0.916 | 0.988 | 1.03 | 0.938 | 1.2 | 0.413 | 0.426 | 0.506 | 0.425 | 0.477 | 1.08 | 1.01 | 1.08 | 1.06 | 1.04
NCI-H596 | 0.952 | 0.942 | 0.908 | 0.947 | 0.807 | 0.871 | 1.03 | 0.94 | 0.881 | 0.345 | 0.394 | 0.375 | 0.372 | 0.287 | 0.968 | 0.896 | 0.998 | 1.07 | 1.08
NCI-H1650 | 0.929 | 0.897 | 0.936 | 0.885 | 0.729 | 0.795 | 0.881 | 0.728 | 1.22 | 0.491 | 0.503 | 0.48 | 0.583 | 0.414 | 1.02 | 0.921 | 0.973 | 1.02 | 0.732
EKVX | 0.93 | 0.893 | 0.836 | 1 | 0.888 | 1 | 1.03 | 0.915 | 0.886 | 0.402 | 0.362 | 0.449 | 0.498 | 0.431 | 1.05 | 0.859 | 1.03 | 1.04 | 0.894
NCI-H1975 | 1.09 | 0.943 | 0.95 | 1.09 | 0.804 | 0.869 | 0.997 | 0.91 | 0.958 | 0.321 | 0.259 | 0.261 | 0.324 | 0.211 | 1.18 | 0.815 | 1.06 | 1.04 | 0.997
HCC-78 | 0.892 | 0.786 | 0.851 | 1.09 | 0.878 | 0.981 | 1.02 | 0.924 | 0.587 | 0.198 | 0.213 | 0.209 | 0.224 | 0.229 | 0.357 | 0.324 | 0.369 | 0.372 | 0.335
